Measurements from ChEMBL document CHEMBL5335862, “The Science and Art of Structure-Based Virtual Screening” (ACS Med Chem Lett, 2024).

Biological target: CREB-binding protein (Homo sapiens, UniProt Q92793)
Assay: Inhibition of CREBBP (unknown origin) by TR-FRET assay

CREB-binding protein, sequence (Q92793 whole entry): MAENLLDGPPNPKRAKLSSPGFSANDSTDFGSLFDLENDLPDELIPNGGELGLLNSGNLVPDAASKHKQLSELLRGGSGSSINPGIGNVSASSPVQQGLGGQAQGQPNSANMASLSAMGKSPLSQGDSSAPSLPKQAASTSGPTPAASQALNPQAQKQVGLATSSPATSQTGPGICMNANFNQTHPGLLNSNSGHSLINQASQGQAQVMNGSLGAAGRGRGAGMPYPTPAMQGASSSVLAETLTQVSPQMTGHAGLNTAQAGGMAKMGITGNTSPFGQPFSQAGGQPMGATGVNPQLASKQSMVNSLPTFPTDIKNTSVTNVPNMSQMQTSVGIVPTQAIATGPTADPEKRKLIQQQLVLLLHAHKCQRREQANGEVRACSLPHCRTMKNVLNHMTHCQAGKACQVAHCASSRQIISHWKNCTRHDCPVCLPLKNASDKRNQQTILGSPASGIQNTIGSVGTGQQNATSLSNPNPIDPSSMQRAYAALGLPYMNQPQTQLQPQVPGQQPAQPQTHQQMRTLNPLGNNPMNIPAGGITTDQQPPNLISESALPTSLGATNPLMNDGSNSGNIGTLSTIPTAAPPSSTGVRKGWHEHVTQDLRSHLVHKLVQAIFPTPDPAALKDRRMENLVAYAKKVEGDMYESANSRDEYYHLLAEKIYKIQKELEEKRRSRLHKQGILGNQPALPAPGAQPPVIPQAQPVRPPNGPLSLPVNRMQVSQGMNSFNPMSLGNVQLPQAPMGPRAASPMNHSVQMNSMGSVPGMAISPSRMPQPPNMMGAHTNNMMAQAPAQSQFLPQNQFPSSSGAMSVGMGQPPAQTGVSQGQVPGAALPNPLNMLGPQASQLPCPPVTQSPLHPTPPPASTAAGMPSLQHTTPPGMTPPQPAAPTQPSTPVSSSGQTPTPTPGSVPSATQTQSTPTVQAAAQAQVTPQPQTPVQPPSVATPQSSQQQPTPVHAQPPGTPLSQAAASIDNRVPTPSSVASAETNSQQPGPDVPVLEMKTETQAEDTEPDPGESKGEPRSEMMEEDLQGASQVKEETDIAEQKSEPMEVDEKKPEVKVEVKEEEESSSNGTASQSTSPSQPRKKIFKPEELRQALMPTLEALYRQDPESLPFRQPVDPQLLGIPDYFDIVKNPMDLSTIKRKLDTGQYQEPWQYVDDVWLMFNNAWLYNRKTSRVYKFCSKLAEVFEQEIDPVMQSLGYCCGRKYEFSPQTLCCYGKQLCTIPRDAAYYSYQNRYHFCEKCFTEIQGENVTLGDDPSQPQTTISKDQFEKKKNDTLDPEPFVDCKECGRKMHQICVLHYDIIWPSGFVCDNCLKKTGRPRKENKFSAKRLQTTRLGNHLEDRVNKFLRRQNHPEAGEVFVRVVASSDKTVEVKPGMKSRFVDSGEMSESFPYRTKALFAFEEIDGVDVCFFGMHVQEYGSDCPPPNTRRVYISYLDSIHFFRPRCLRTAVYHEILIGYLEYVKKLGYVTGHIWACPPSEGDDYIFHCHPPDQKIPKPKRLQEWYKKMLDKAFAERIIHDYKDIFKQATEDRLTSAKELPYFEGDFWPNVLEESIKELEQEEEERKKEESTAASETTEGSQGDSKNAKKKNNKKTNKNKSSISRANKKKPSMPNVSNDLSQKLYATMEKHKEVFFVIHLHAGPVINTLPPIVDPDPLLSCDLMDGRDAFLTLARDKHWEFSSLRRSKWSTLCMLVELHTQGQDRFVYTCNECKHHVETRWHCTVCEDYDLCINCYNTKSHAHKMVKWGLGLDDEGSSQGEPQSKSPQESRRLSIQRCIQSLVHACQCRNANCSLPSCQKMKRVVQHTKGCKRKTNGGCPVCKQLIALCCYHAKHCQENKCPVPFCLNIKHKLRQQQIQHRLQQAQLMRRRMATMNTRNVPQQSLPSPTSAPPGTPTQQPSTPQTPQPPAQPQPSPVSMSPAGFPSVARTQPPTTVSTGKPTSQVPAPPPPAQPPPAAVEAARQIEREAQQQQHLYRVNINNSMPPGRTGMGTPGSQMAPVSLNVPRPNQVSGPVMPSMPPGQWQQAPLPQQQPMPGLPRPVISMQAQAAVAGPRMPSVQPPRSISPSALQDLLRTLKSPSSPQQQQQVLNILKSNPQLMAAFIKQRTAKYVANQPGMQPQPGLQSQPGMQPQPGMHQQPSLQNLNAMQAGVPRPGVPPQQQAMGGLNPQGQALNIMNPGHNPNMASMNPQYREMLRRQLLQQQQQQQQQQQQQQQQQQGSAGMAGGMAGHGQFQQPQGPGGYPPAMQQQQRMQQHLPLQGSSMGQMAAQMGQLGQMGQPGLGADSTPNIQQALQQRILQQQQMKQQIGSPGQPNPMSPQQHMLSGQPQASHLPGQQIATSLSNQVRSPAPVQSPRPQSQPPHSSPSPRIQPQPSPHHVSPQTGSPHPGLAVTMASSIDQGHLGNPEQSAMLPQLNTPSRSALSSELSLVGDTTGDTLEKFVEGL

IC50 [nM]	Structure (SMILES)
300	Cc1ccc(O)cc1-n1c(N)c(C(N)=O)c2nc3ccccc3nc21
300	Cc1cc2c(C(N)=O)c(N)n(-c3c(C)ccc(O)c3C)c2nc1C [LUNRESERTIB]
